# Test results from patent publication US20260125400A1, “TYK2 DEGRADERS AND USES THEREOF” (Kymera Therapeutics, Inc., priority 2023, published 2026).
# Biological target: T1, TYK2 (Homo sapiens, UniProt P29597)
# T1 construct: Degradation of TYK2 in cells was quantitatively measured using Meso Scale Discovery (MSD) technology; endogenous in cells; host or cells: OCI-LY10
# Test: TYK2 MSD degradation in OCI-LY10 cells
# Type: cell-based
# Conditions: TYK2 degradation in OCI-LY10 cells, 4 to 24 hours incubation
# Description: Example 7. TYK2 MSD Degradation
# Degradation of TYK2 in cells was quantitatively measured using Meso Scale Discovery (MSD) technology. OCI-LY10 cells were seeded in 96-well plates with a density of 0.4 million cells per well in 100 μl fresh media. Compounds were then added to the assay plates with a final top concentration of 1 to 10 μM in a 1:3 dilution series with total of 9 doses. The assay plates were then incubated for 4 to 24 hours at 37° C. under […]. The assay plates were then centrifuged for 5 minutes, and the cell pellets were treated with 100 μl/well RIPA lysis buffer (Boston Bioproducts, BP-115D) with protease and phosphatase inhibitors (Roche, 05892791001 and 04906837001). To prepare MSD assay plates (MSD, L15XA), the plates were coated with the capture antibody (Santa Cruz Biotechnology, SC-5271) in PBS, at 40 μl/well. The plates were then incubated overnight at 4° C., washed 3 times with 150 μl/well TBST buffer (Cell Signaling Technology, 9997S) and blocked with 150 μl/well blocking buffer (MSD, R93BA-4). Cell lysates were then added to MSD assay plates and the plates were incubated at room temperature for 1 hour. The plates were then washed 3 times with 150 μl/well TBST buffer and 25 μl/well primary detection antibody (Cell Signaling Technology, #9312). The assay plates were then incubated at room temperature for 1 hour, washed 3 times with 150 μl/well TBST buffer, and 25 μl/well secondary detection antibody, SULFO-TAG anti-rabbit antibody (MSD, R32AB-1) were added. The assay plates were then incubated at room temperature for 1 hour, washed 3 times with 150 μl/well TB ST buffer, and 150 μl/well MSD reading buffer (MSD, R92TC-2) were added. The plates were then analyzed by an MSD reader. The data was analyzed by GraphPad Prism and the dose dependent TYK2 degradation was fit using the four-parameter inhibitor vs. response nonlinear regression.
# The letter codes for TYK2 DC50 include: A (<1 nM); B (i to <10 nM); C (10 to 100 nM); D (>100 nM); and E (not tested). The letter codes for TYK2 Dmax % include: A (>90%); B (90 to >75%); C (75 to 50%); D (<50%); and E (not tested).
# T1 sequence (P29597 whole entry): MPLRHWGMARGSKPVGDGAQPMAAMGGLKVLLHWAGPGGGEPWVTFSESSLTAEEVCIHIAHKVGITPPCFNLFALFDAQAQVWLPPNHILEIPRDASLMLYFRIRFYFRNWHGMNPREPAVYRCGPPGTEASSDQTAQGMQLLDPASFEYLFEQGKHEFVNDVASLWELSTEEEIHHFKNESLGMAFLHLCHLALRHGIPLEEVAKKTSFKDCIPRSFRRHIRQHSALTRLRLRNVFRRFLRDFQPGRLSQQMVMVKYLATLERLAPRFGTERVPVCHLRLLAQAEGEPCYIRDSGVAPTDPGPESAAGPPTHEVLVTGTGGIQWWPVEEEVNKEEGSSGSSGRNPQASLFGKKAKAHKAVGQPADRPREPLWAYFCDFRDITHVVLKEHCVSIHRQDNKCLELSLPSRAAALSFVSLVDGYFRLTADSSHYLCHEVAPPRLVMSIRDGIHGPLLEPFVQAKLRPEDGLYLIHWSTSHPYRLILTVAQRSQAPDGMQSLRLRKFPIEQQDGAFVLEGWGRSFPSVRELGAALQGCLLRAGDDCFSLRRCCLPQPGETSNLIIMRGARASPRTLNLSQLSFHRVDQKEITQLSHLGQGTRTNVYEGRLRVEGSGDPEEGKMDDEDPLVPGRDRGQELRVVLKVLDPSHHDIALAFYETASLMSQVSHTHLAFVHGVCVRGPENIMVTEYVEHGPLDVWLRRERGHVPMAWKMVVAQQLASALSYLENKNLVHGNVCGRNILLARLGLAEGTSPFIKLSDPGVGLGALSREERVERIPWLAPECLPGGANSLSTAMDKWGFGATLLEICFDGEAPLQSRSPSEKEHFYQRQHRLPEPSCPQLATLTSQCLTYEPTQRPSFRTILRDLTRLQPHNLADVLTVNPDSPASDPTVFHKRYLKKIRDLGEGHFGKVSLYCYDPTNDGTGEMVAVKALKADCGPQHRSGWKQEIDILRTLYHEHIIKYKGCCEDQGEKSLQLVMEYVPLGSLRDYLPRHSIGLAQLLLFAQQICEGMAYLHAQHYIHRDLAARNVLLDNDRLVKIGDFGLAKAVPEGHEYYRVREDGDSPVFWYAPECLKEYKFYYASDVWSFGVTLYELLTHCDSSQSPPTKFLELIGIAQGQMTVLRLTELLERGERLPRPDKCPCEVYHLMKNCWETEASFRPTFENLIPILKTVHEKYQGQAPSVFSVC
row,Structure (SMILES),TYK2 MSD OCI-LY10 Dmax %
1,CNc1cc(N2CCc3c(-c4ccc(CN5CC6(CCN(C(=O)c7ccc(Cl)c(N8CCC(=O)NC8=O)c7)CC6(F)F)C5)cn4)cccc32)nn2c(C(=O)N[C@H]3C[C@H](OC)C3)cnc12 [I-886],B (B (90 to >75%))
2,CNc1cc(N2CCc3c(-c4ccc(CN5CCC6(CCN(C(=O)c7ccc(Cl)c(N8CCC(=O)NC8=O)c7)CC6)C(F)(F)C5)cn4)cccc32)nn2c(C(=O)N[C@@H]3CC[C@H]3C(F)(F)F)cnc12 [I-1108],D (D (<50%))
3,CNc1cc(N2CCc3c(-c4cc(C)c(CN5CC6(CCN(C(=O)c7cc(C)c(Cl)c(N8CCC(=O)NC8=O)c7)CC6(F)F)C5)cn4)cccc32)nn2c(C(=O)N[C@@H]3C[C@@H]3F)cnc12 [I-958],A (A (>90%))
4,CNc1cc(N2CCc3c(CN4CCC(N5CCC6(CCN(C(=O)c7ccc(Cl)c(N8CCC(=O)NC8=O)c7)C6)C5)C(F)(F)C4)cccc32)nn2c(C(=O)N[C@@H]3C[C@@H]3F)cnc12 (some centres unmarked) [I-811],A (A (>90%))
5,CNc1cc(N2CCc3c(CN4CCC(N5CCC(C6CCN(c7ccc8c(c7)n(C)c(=O)n8C7CCC(=O)NC7=O)CC6)CC5)C(F)(F)C4)cccc32)nn2c(C(=O)N[C@H]3C[C@H]3F)cnc12 (some centres unmarked) [I-84],C (C (75 to 50%))
6,CNc1cc(N2CCc3c(C4CCN(CC5CC6(CCN(C(=O)c7ccc(Cl)c(N8CCC(=O)NC8=O)c7)CC6)C5)CC4)cccc32)nn2c(C(=O)NC3CC3)cnc12 [I-60],C (C (75 to 50%))
7,CNc1cc(N2CCc3c(-c4ccc(CN5CCC6(CCN(C(=O)c7cc(C)c(Cl)c(N8CCC(=O)NC8=O)c7)CC6)C(F)(F)C5)cn4)cccc32)nn2c(C(=O)NC3CCCC3(F)F)cnc12 (centres unmarked) [I-998],C (C (75 to 50%))
8,CNc1cc(N2CCc3c(-c4ccc(CN5CCC6(CC5)CCN(Cc5ccc(Cl)c(N7CCC(=O)NC7=O)c5)CC6)cn4)cccc32)nn2c(C(=O)N[C@@H]3C[C@@H]3F)cnc12 [I-95],D (D (<50%))
9,CNc1cc(N2CCc3c(-c4ccc(CN5CC6(CCN(C(=O)c7ccc(Cl)c(N8CCC(=O)NC8=O)c7)C6)C5)cn4)cccc32)nn2c(C(=O)NC3CC3F)cnc12 (centres unmarked) [I-296],C (C (75 to 50%))
10,CNc1cc(N2CCc3c(-c4cc(CN5CCC(c6ccc7c(c6)n(C)c(=O)n7C6CCC(=O)NC6=O)C(F)(F)C5)ccn4)cccc32)nn2c(C(=O)NC3CC3)cnc12 (centres unmarked) [I-4],D (D (<50%))
11,CNc1cc(N2CCc3c(-c4ccc(CN5CC6(CCN(Cc7ccc(OC)c(N8CCC(=O)NC8=O)c7)CC6(F)F)C5)cn4)cccc32)nn2c(C(=O)N[C@@H]3C[C@@H]3F)cnc12 [I-367],C (C (75 to 50%))
12,CNc1cc(N2CCc3c(CN4CCC(N5CCC6(CCN(C(=O)c7cc(C)c(Cl)c(N8CCC(=O)NC8=O)c7)CC6)CC5)C(F)(F)C4)cc(Cl)cc32)nn2c(C(=O)N[C@@H]3CC[C@H]3OC)cnc12 (some centres unmarked) [I-1116],B (B (90 to >75%))
13,CNc1cc(N2CCc3c(-c4ncc(CN5CC6(CCN(C(=O)c7cc(C)c(OC)c(N8CCC(=O)NC8=O)c7)CC6(F)F)C5)cc4F)cccc32)nn2c(C(=O)N[C@@H]3CC[C@H]3OC)cnc12 [I-1138],B (B (90 to >75%))
14,CNc1cc(N2CCc3c(-c4ncc(CN5CC6(CCN(C(=O)c7cc(Cl)c(C)c(N8CCC(=O)NC8=O)c7)CC6(F)F)C5)cc4F)cc(F)cc32)nn2c(C(=O)N[C@@H]3C[C@@H]3F)cnc12 [I-944],A (A (>90%))
15,CNc1cc(N2CCc3c(-c4ccc(N5CC6(CCN(Cc7ccc(N8CCC(=O)NC8=O)c(Cl)c7)CC6)C5)cn4)cccc32)nn2c(C(=O)N[C@@H]3C[C@@H]3F)cnc12 [I-881],B (B (90 to >75%))
16,CNc1cc(N2CCc3c(-c4ccc(CN5CC6(CCN(Cc7ccc(C)c(N8CCC(=O)NC8=O)c7)CC6(F)F)C5)cn4)cccc32)nn2c(C(=O)N[C@@H]3C[C@@H]3F)cnc12 [I-366],D (D (<50%))

# Same assay, conditions: TYK2 degradation in OCI-LY10 cells, 4 to 24 hours incubation, read-out: TYK2 MSD OCI-LY10 Rel-DC50
row,Structure (SMILES),DC50 [nM]
1,CNc1cc(N2CCc3c(-c4ccc(CN5CC6(CCN(C(=O)c7ccc(Cl)c(N8CCC(=O)NC8=O)c7)CC6(F)F)C5)cn4)cccc32)nn2c(C(=O)N[C@H]3C[C@H](OC)C3)cnc12 [I-886],< 10
2,CNc1cc(N2CCc3c(-c4ccc(CN5CCC6(CCN(C(=O)c7ccc(Cl)c(N8CCC(=O)NC8=O)c7)CC6)C(F)(F)C5)cn4)cccc32)nn2c(C(=O)N[C@@H]3CC[C@H]3C(F)(F)F)cnc12 [I-1108],> 100
3,CNc1cc(N2CCc3c(-c4cc(C)c(CN5CC6(CCN(C(=O)c7cc(C)c(Cl)c(N8CCC(=O)NC8=O)c7)CC6(F)F)C5)cn4)cccc32)nn2c(C(=O)N[C@@H]3C[C@@H]3F)cnc12 [I-958],< 1
4,CNc1cc(N2CCc3c(CN4CCC(N5CCC6(CCN(C(=O)c7ccc(Cl)c(N8CCC(=O)NC8=O)c7)C6)C5)C(F)(F)C4)cccc32)nn2c(C(=O)N[C@@H]3C[C@@H]3F)cnc12 (some centres unmarked) [I-811],< 1
5,CNc1cc(N2CCc3c(CN4CCC(N5CCC(C6CCN(c7ccc8c(c7)n(C)c(=O)n8C7CCC(=O)NC7=O)CC6)CC5)C(F)(F)C4)cccc32)nn2c(C(=O)N[C@H]3C[C@H]3F)cnc12 (some centres unmarked) [I-84],< 10
6,CNc1cc(N2CCc3c(C4CCN(CC5CC6(CCN(C(=O)c7ccc(Cl)c(N8CCC(=O)NC8=O)c7)CC6)C5)CC4)cccc32)nn2c(C(=O)NC3CC3)cnc12 [I-60],< 10
7,CNc1cc(N2CCc3c(-c4ccc(CN5CCC6(CCN(C(=O)c7cc(C)c(Cl)c(N8CCC(=O)NC8=O)c7)CC6)C(F)(F)C5)cn4)cccc32)nn2c(C(=O)NC3CCCC3(F)F)cnc12 (centres unmarked) [I-998],10 to 100
8,CNc1cc(N2CCc3c(-c4ccc(CN5CCC6(CC5)CCN(Cc5ccc(Cl)c(N7CCC(=O)NC7=O)c5)CC6)cn4)cccc32)nn2c(C(=O)N[C@@H]3C[C@@H]3F)cnc12 [I-95],> 100
9,CNc1cc(N2CCc3c(-c4ccc(CN5CC6(CCN(C(=O)c7ccc(Cl)c(N8CCC(=O)NC8=O)c7)C6)C5)cn4)cccc32)nn2c(C(=O)NC3CC3F)cnc12 (centres unmarked) [I-296],< 1
10,CNc1cc(N2CCc3c(-c4cc(CN5CCC(c6ccc7c(c6)n(C)c(=O)n7C6CCC(=O)NC6=O)C(F)(F)C5)ccn4)cccc32)nn2c(C(=O)NC3CC3)cnc12 (centres unmarked) [I-4],> 100
11,CNc1cc(N2CCc3c(-c4ccc(CN5CC6(CCN(Cc7ccc(OC)c(N8CCC(=O)NC8=O)c7)CC6(F)F)C5)cn4)cccc32)nn2c(C(=O)N[C@@H]3C[C@@H]3F)cnc12 [I-367],< 10
12,CNc1cc(N2CCc3c(CN4CCC(N5CCC6(CCN(C(=O)c7cc(C)c(Cl)c(N8CCC(=O)NC8=O)c7)CC6)CC5)C(F)(F)C4)cc(Cl)cc32)nn2c(C(=O)N[C@@H]3CC[C@H]3OC)cnc12 (some centres unmarked) [I-1116],< 10
13,CNc1cc(N2CCc3c(-c4ncc(CN5CC6(CCN(C(=O)c7cc(C)c(OC)c(N8CCC(=O)NC8=O)c7)CC6(F)F)C5)cc4F)cccc32)nn2c(C(=O)N[C@@H]3CC[C@H]3OC)cnc12 [I-1138],< 1
14,CNc1cc(N2CCc3c(-c4ncc(CN5CC6(CCN(C(=O)c7cc(Cl)c(C)c(N8CCC(=O)NC8=O)c7)CC6(F)F)C5)cc4F)cc(F)cc32)nn2c(C(=O)N[C@@H]3C[C@@H]3F)cnc12 [I-944],< 1
15,CNc1cc(N2CCc3c(-c4ccc(N5CC6(CCN(Cc7ccc(N8CCC(=O)NC8=O)c(Cl)c7)CC6)C5)cn4)cccc32)nn2c(C(=O)N[C@@H]3C[C@@H]3F)cnc12 [I-881],< 10
16,CNc1cc(N2CCc3c(-c4ccc(CN5CC6(CCN(Cc7ccc(C)c(N8CCC(=O)NC8=O)c7)CC6(F)F)C5)cn4)cccc32)nn2c(C(=O)N[C@@H]3C[C@@H]3F)cnc12 [I-366],< 10
